Results published in US20050250853A1, “Beta-tubulin inhibitors” (priority 1999, published 2005).
Entries after “also recorded” stand apart in the source; their conditions may differ. Read-outs that look alike come from different tables or passages of the source. Marks after values point to notes of the source that are not given here.

How the values were obtained:
α-tubulin = assay: Western blot for α-tubulin modification; format: cell-based, human; settings: data not shown
[1] = tested on: CHO 10001 cells (wild-type); assay: MTT cytotoxicity on wild-type CHO cells; format: cell-based, Chinese hamster; settings: Cricetulus griseus, CHO10001, 120 h, read-out: IC50 CHO 10001
Procedure: (§1) Human breast carcinoma cell line, MDA-MB-231, was obtained from the American Type Culture Collection (ATCC HTB-26; Bethesda, Md.). MDA-MB-231 cells were grown in RPMI 1640 medium supplemented with 10% bovine calf serum (Hyclone, Road Logan, Utah). […] These cells were cultured in RPMI 1640 containing 10% fetal bovine serum. SK—N—SH human neuroblastoma cells, (ATCC HTB-11; Bethesda, Md.) were cultured in MEM medium supplemented with 2 mM L-glutamine, 1.5 g/liter sodium bicarbonate, 0.1 mM non-essential amino acids, 1 mM sodium pyruvate and 10% fetal bovine serum. Cells were cultured in a humidified atmosphere at 37° C. in 5% CO2.
(§2) Cytotoxicity was assessed using the MTT assay (3-(4,5-dimethylthiazol-2-yl)-2,5-diphenyltetrazolium bromide) as described by Carmichael et al. (12).
(§3) The cytotoxicity of 4-tBCEU, 4-iPCEU and 4-sBCEU in two CHO cell lines having differential sensitivity to antmicrotubule agents was evaluated. These cell lines are derived from parental CHO-10001 cells and express mutated tubulins.

MDA-MB-231 cells [2] = assay: cells; format: cell-based, human; settings: for IC50: MTT assay, mean ± SD, read-out: IC50 (μM) MDA-MB-231
Procedure: Human breast carcinoma cell line, MDA-MB-231, was obtained from the American Type Culture Collection (ATCC HTB-26; Bethesda, Md.). MDA-MB-231 cells were grown in RPMI 1640 medium supplemented with 10% bovine calf serum (Hyclone, Road Logan, Utah). Wild-type Chinese Hamster Ovary cells (CHO-10001) (7), colchicine- and vinblastine-resistant (CHO-VV 3-2) (8) and taxol-resistant (CHO-TAX 5-6) cells (9) were generously provided by Dr. Fernando Cabral (University of Texas Medical School, Houston, Tex.). These cells were cultured in RPMI 1640 containing 10% fetal bovine serum. SK—N—SH human neuroblastoma cells, (ATCC HTB-11; Bethesda, Md.) were cultured in MEM medium supplemented with 2 mM L-glutamine, 1.5 g/liter sodium bicarbonate, 0.1 mM non-essential amino acids, 1 mM sodium pyruvate and 10% fetal bovine serum. Cells were cultured in a humidified atmosphere at 37° C. in 5% CO2.
as §2

CHO TAX 5-6 cells = assay: MTT cytotoxicity on taxol-resistant CHO cells expressing mutated tubulin; format: cell-based, Chinese hamster; settings: Cricetulus griseus, CHO-TAX 5-6, 120 h, read-out: IC50 CHO TAX 5-6
Procedure: as §1, §2, §3

[3] = Kinetics of alkylation of 4-(4-nitrobenzyl)pyridine (colorimetric assay); format: physicochemical; settings: 80° C., pH 4.3, absorbance at 570 nm, linear regression, mean ± SD
Procedure: The rate constant of alkylation (K′) of CEU derivatives and chlorambucil was evaluated by a […] assay as described by Bardos et al (13). Briefly, 1 ml of a 10% (v/v) solution of 4-(4-nitrobenzyl)pyridine in ethanol and 1 ml of 50 mM sodium acetate (pH 4.3) were added to an ethanol solution (95%) containing 400 nmol per ml of either chlorambucil or CEU and heated to 80° C. in a shaking water bath for 60, 90, 120 or 150 min. The reaction was stopped by cooling the mixtures on ice for 5 min. Then, 1.5 ml of 0.1 M KOH: ethanol (1:2, v/v) were added to the reaction mixture. Samples were vortexed for 12 sec and set aside for 2.5 min prior to reading the absorbance at 570 nm. The values were compared with those obtained using a blank sample containing all reagents except the alkylating agent.

CHO VV 3-2 cells = assay: MTT cytotoxicity on vinblastine- and colchicine-resistant CHO cells expressing mutated tubulin; format: cell-based, Chinese hamster; settings: Cricetulus griseus, CHO-VV 3-2, 120 h, read-out: IC50 CHO VV 3-2
Procedure: as §1, §2, §3

β-tubulin = assay: Separation of soluble and polymerized tubulins, Western blot of β-tubulin; format: cell-based, human; settings: MDA-MB-231 cells, 30 μM, 24 h and 48 h
Procedure: FIG. 2. Effects of CEU derivatives on microtubule depolymerization. Exponentially growing MDA-MB-231 cells were incubated in the absence or the presence of 30 μM of CEU derivatives including (A) 4-tBCEU, 4-iPCEU or 4-sBCEU for 24 and 48 h respectively; (B) 2-ECEU, 3-ECEU or 4-ECEU for 24 and 48 h; and (C) 4-tBEU, 4-iPEU, 4-sBEU, 4-tBCPU, CEU or 4-methoxyCEU for 48 h. Free tubulin and microtubule fractions were isolated and analyzed by Western blot. Data are representative of three different experiments.
Separation of soluble and polymerized tubulins from MDA-MB231 cells was carried out as described by Minotti et al. (14) with minor modifications. Briefly, after drug exposure, about 5×10^6 cells in 100-mm petri dishes were washed with PBS at 37° C. and harvested in 3 ml of PBS containing 0.4 μg/ml of taxol using a rubber policeman.
Cells were centrifuged and lysed using 250 μl of microtubule-stabilizing buffer (20 mM Tris-HCl, pH 6.8, 140 mM NaCl, 1 mM MgCl2, 2 mM EDTA, 0.5% Nonidet P-40 and 0.4 μg/ml taxol), and then transferred to 1.5 ml microcentrifuge tubes. Samples were centrifuged at 12,000×g for 10 min at 4° C. and the supernatants containing soluble tubulin were placed in separate microcentrifuge tubes containing 250 μl of 2× Laemmli sample buffer (15). Pellets containing the polymerized tubulin were resuspended in 250 μl of water, followed by two freeze/thawing cycles, and the addition of 250 μl of 2× Laemmli sample buffer. Samples were analyzed by SDS-PAGE and immunoassay was performed as described below.
Samples (1×10^5 cells) were analyzed by 10% SDS-PAGE using the Laemmli system (15). Membranes were then incubated with PBSMT (PBS, pH 7.4, 5% fat-free dry milk and 0.1% Tween-20) for 1 h at room temperature, and then with 1:500 monoclonal anti-β-tubulin (clone TUB 2.1, Sigma) or 1:400 anti (clone no. SDL.3D10, Sigma) for 1 h. […] Membranes were washed with PBSMT and incubated with 1:2500 peroxidase-conjugated anti-mouse immunoglobulin (Amersham Canada, Oakville, Canada) in PBSMT for 30 min. Detection of the immunoblot was carried out with the ECL Western blotting detection reagent kit (Amersham Canada, Oakville, Canada).

MDA-MB-231 cells [4] = assay: Cell cycle analysis by propidium iodide flow cytometry; format: cell-based, human; settings: CEU derivatives at 30 μM, 24 h; flow cytometry
Procedure: FIG. 1. Effect of CEU derivatives on cell cycle. Exponentially growing MDA-MB-231 cells were incubated in the absence or presence of 30 μM of either 4-tBCEU, 4-iPCEU or 4-sBCEU for 24 and 48 h, respectively, at 37° C. The cell cycle was evaluated using propidium iodide staining and flow cytometric analysis. Data are representative of three independent experiments.
Following incubation of MDA-MB-231 cells with 4-tBCEU, 4-iPCEU or 4-sBCEU, the cells were harvested, resuspended in 1 ml PBS and fixed by the addition of 2.4 ml of ice cold anhydrous ethanol. Then, 5×10^5 cells from each sample were centrifuged for 3 min at 1000×g. Cell pellets were resuspended in PBS containing 50 μg/ml of PI and 40 U/ml of ribonuclease A (Boehringer Mannheim, Laval, Calif.). Mixtures were incubated at room temperature for 30 min and cell cycle distribution was analyzed using an Epics Elite ESP flow cytometer (Coulter Corporation, Miami, Fla., USA).
The effect of CEU, namely 4-tBCEU, 4-PCEU and 4-sBCEU, on the cell cycle was analyzed. To this end, exponentially growing MDA-MB-231 cells were treated with 30 μM 4-tBCEU, 4-iPCEU or 4-sBCEU for 24 or 48 h followed by an evaluation of cell cycle distribution by flow cytometry using propidium iodide, a fluorescent DNA dye. […] Induction of mitosis blockage in prophase by CEU derivatives was confirmed by mitotic index analysis as described by Drouin (22).

Q: With `CC(C)(C)c1ccc(NC(=O)NCCCl)cc1` [Example 4-tBCEU, 4-tert-butyl[3-(2-chloroethyl)ureido]benzene] as the molecule, how does the α-tubulin modification (α-tubulin) read?
A: no electrophoretic evidence for α-tubulin modification

Q: And the IC50 [1]?
A: 11.6 ± 0.7 µM

Q: What about the “cytotoxicity in words (active / inactive CEU)” value (MDA-MB-231 cells [2]) of the same molecule?
A: active

Q: And the IC50 (MDA-MB-231 cells [2]; Homo sapiens, MDA-MB-231, concentration inhibiting 50% of cell growth)?
A: 4 µM

Q: What about the IC50 (MDA-MB-231 cells [2]; concentration inhibiting 50% of cell growth) of the same molecule?
A: 4.6 ± 0.3 µM

Q: What about the IC50 (CHO TAX 5-6 cells) of the same molecule?
A: 4.6 ± 0.3 µM

Q: And the “K′ (constant of alkylation of 4-(4-nitrobenzyl)pyridine)” value [3]?
A: 3.1 ± 0.3^a

Q: And the IC50 (CHO VV 3-2 cells)?
A: 21.3 ± 1.1 µM

Q: And the microtubule depolymerization (β-tubulin)?
A: complete microtubule depolymerization

Q: And the “formation of modified β-tubulin (second immunoreactive band of lower Mr)” value (β-tubulin; free tubulin fraction)?
A: second immunoreactive band; also recorded: induced in a dose-dependent manner

Q: What about the “accumulation of cells in G2+M” value (MDA-MB-231 cells [4]) of the same molecule?
A: significant accumulation of cells in the G2+M
